# In PubChem BioAssay (NCI):
#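 These data come from cells grown in 96-well plates and exposed to compound for 48 hours at five concentrations. Abbreviation: GI50, concentration required for 50% inhibition of growth. Definition used: TGI = concentration required for complete inhibition of growth.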
# Legend:
# Assay in all cases: DTP human tumour cell line panel, 48 h
# HCT-116 colon = tested on: HCT-116 colon
# HOP-92 NSCLC = tested on: HOP-92 NSCLC
# HS 578T breast = tested on: HS 578T breast
# MDA-MB-435 = tested on: MDA-MB-435
# NCI-H522 lung = tested on: NCI-H522 lung
# T-47D breast = tested on: T-47D breast
# TK-10 renal = tested on: TK-10 renal
# UO-31 renal = tested on: UO-31 renal
# SK-OV-3 ovarian = tested on: SK-OV-3 ovarian
# DLD-1 colon = tested on: DLD-1 colon
# RXF 393 renal = tested on: RXF 393 renal
# XF 498 CNS = tested on: XF 498 CNS
Compound,GI50 (HCT-116 colon),TGI (HCT-116 colon),GI50 (HOP-92 NSCLC),TGI (HOP-92 NSCLC),GI50 (HS 578T breast),TGI (HS 578T breast),GI50 (MDA-MB-435),TGI (MDA-MB-435),GI50 (NCI-H522 lung),TGI (NCI-H522 lung),GI50 (T-47D breast),TGI (T-47D breast),GI50 (TK-10 renal),TGI (TK-10 renal),GI50 (UO-31 renal),TGI (UO-31 renal),TGI (SK-OV-3 ovarian),TGI (DLD-1 colon),TGI (RXF 393 renal),TGI (XF 498 CNS)
COc1cc(/C=C2\CN(S(=O)(=O)c3ccc(C)cc3)C/C(=C\c3cc(CN4CCCC4)c(O)c(OC)c3)C2=O)cc(CN2CCCC2)c1O,0.848 µM,2.21 µM,1.15 µM,3.83 µM,2.73 µM,7.72 µM,1.53 µM,2.97 µM,0.433 µM,2.3 µM,1.42 µM,3.79 µM,1.86 µM,3.49 µM,1.51 µM,2.96 µM,,,,
CO[C@](C(=O)OC[C@H]1[C@@H](COC(C)=O)[C@@H]2O[C@H]1c1cc3c(cc12)OCO3)(c1ccccc1)C(F)(F)F,,> 100 µM,,> 100 µM,,,,> 100 µM,,17.2 µM,,,,> 100 µM,,55.4 µM,> 100 µM,,,
Cc1ccc(C(=O)OC(C(=O)O)C(OC(=O)c2ccc(C)cc2)C(=O)O)cc1 (stereo not given) (tested in a mixture with another compound),,13.8 µM,,11.8 µM,,,,,,11.4 µM,,,,,,14.5 µM,28.2 µM,21.3 µM,16 µM,10.2 µM
O=C(CC1Sc2ccccc2NC1=O)Nc1ccccc1[N+](=O)[O-] (stereo not given),,> 100 µM,,> 100 µM,,,,,,32.8 µM,,,,> 100 µM,,> 100 µM,> 100 µM,> 100 µM,> 100 µM,> 100 µM
Oc1ccc(NCn2c(=S)sc3ccccc32)cc1,,> 100 µM,,> 100 µM,,> 100 µM,,> 100 µM,,40.5 µM,,> 100 µM,,> 100 µM,,> 100 µM,> 100 µM,,> 100 µM,
